Values joined by “and” are separate entries in the source; they are usually repeats but may differ in a detail not shown here. Equal values may be shown once.
Assay: mn = molality of the nth substance listed, in mol/kg
Settings: Liquid, glass piezometer

[I-].[NH4+] [ammonium iodide] + N
mass density
Settings | 303.15 K | 313.15 K | 323.15 K | 333.15 K | 343.15 K | 353.15 K | 363.15 K | 373.15 K
10000 kPa, m1 = 0.867 | 698.2 kg/m3 | 683.7 kg/m3 | 668.4 kg/m3 | 650.5 kg/m3 | 632.1 kg/m3 | 615.5 kg/m3 | 593.9 kg/m3 | 579.5 kg/m3
10000 kPa, m1 = 1.827 | 777.3 kg/m3 | 762.9 kg/m3 | 748.7 kg/m3 | 732.5 kg/m3 | 716.4 kg/m3 | 700.1 kg/m3 | 680.1 kg/m3 | 666.9 kg/m3
10000 kPa, m1 = 3.103 | 870.7 kg/m3 | 857.4 kg/m3 | 844.3 kg/m3 | 829.3 kg/m3 | 814.6 kg/m3 | 797.7 kg/m3 | 780.9 kg/m3 | 768.1 kg/m3
10000 kPa, m1 = 4.856 | 988.2 kg/m3 | 974.7 kg/m3 | 960.5 kg/m3 | 947.6 kg/m3 | 933.1 kg/m3 | 917.8 kg/m3 | 903.2 kg/m3 | 889.8 kg/m3
10000 kPa, m1 = 7.271 | 1109 kg/m3 | 1097.5 kg/m3 | 1085.9 kg/m3 | 1075.9 kg/m3 | 1062.2 kg/m3 | 1049.9 kg/m3 | 1037.1 kg/m3 | 1026.1 kg/m3
10000 kPa, m1 = 11.18 | 1234 kg/m3 | 1222.9 kg/m3 | 1212.3 kg/m3 | 1199.8 kg/m3 | 1188.9 kg/m3 | 1177.9 kg/m3 | 1166.7 kg/m3 | 1155.3 kg/m3
10000 kPa, m1 = 16.46 | 1329.5 kg/m3 | 1322 kg/m3 | 1312 kg/m3 | 1302.5 kg/m3 | 1293.1 kg/m3 | 1284.9 kg/m3 | 1274.7 kg/m3 | 1265.9 kg/m3
15000 kPa, m1 = 0.867 | 702.3 kg/m3 | 688 kg/m3 | 672.8 kg/m3 | 655.7 kg/m3 | 638 kg/m3 | 621.8 kg/m3 | 601.7 kg/m3 | 587.3 kg/m3
15000 kPa, m1 = 1.827 | 780.7 kg/m3 | 766.9 kg/m3 | 752.7 kg/m3 | 737 kg/m3 | 721.7 kg/m3 | 705.7 kg/m3 | 687.2 kg/m3 | 674 kg/m3
15000 kPa, m1 = 3.103 | 874.3 kg/m3 | 861.1 kg/m3 | 848.1 kg/m3 | 833.5 kg/m3 | 818.9 kg/m3 | 803 kg/m3 | 786.3 kg/m3 | 773.7 kg/m3
15000 kPa, m1 = 4.856 | 992.3 kg/m3 | 978.5 kg/m3 | 964.8 kg/m3 | 951.7 kg/m3 | 937.1 kg/m3 | 922.1 kg/m3 | 907.9 kg/m3 | 894.4 kg/m3
15000 kPa, m1 = 7.271 | 1112.4 kg/m3 | 1100.9 kg/m3 | 1089.2 kg/m3 | 1078.8 kg/m3 | 1065.7 kg/m3 | 1053.5 kg/m3 | 1040.7 kg/m3 | 1029.7 kg/m3
15000 kPa, m1 = 11.18 | 1236.7 kg/m3 | 1225.9 kg/m3 | 1214.9 kg/m3 | 1202.6 kg/m3 | 1192.1 kg/m3 | 1181 kg/m3 | 1169.8 kg/m3 | 1158.5 kg/m3
15000 kPa, m1 = 16.46 | 1332.2 kg/m3 | 1323.9 kg/m3 | 1314.6 kg/m3 | 1305 kg/m3 | 1296 kg/m3 | 1287.4 kg/m3 | 1277.2 kg/m3 | 1268.6 kg/m3
20000 kPa, m1 = 0.867 | 706.3 kg/m3 | 691.9 kg/m3 | 677 kg/m3 | 660.8 kg/m3 | 643.7 kg/m3 | 627.9 kg/m3 | 609.6 kg/m3 | 595.1 kg/m3
20000 kPa, m1 = 1.827 | 783.9 kg/m3 | 770.7 kg/m3 | 756.8 kg/m3 | 741.3 kg/m3 | 726.9 kg/m3 | 711.2 kg/m3 | 694.2 kg/m3 | 681 kg/m3
20000 kPa, m1 = 3.103 | 877.8 kg/m3 | 864.6 kg/m3 | 852 kg/m3 | 837.7 kg/m3 | 823.2 kg/m3 | 808.3 kg/m3 | 791.7 kg/m3 | 779.4 kg/m3
20000 kPa, m1 = 4.856 | 996.2 kg/m3 | 982.3 kg/m3 | 969 kg/m3 | 955.5 kg/m3 | 941.1 kg/m3 | 926.5 kg/m3 | 912.5 kg/m3 | 898.9 kg/m3
20000 kPa, m1 = 7.271 | 1115.2 kg/m3 | 1103.9 kg/m3 | 1092.5 kg/m3 | 1081.7 kg/m3 | 1069.2 kg/m3 | 1056.9 kg/m3 | 1044.1 kg/m3 | 1033.2 kg/m3
20000 kPa, m1 = 11.18 | 1238.9 kg/m3 | 1228.8 kg/m3 | 1217 kg/m3 | 1205.5 kg/m3 | 1194.9 kg/m3 | 1183.7 kg/m3 | 1172.8 kg/m3 | 1161.6 kg/m3
20000 kPa, m1 = 16.46 | 1334.5 kg/m3 | 1326.5 kg/m3 | 1316.8 kg/m3 | 1307.6 kg/m3 | 1298.5 kg/m3 | 1289.9 kg/m3 | 1279.6 kg/m3 | 1271 kg/m3
25000 kPa, m1 = 0.867 | 710.1 kg/m3 | 695.7 kg/m3 | 681.3 kg/m3 | 666 kg/m3 | 649.4 kg/m3 | 634.3 kg/m3 | 617.4 kg/m3 | 603.1 kg/m3
25000 kPa, m1 = 1.827 | 787.4 kg/m3 | 774.7 kg/m3 | 760.7 kg/m3 | 745.9 kg/m3 | 731.9 kg/m3 | 716.6 kg/m3 | 701.2 kg/m3 | 687.8 kg/m3
25000 kPa, m1 = 3.103 | 881.1 kg/m3 | 867.8 kg/m3 | 855.9 kg/m3 | 841.8 kg/m3 | 827.6 kg/m3 | 813.5 kg/m3 | 797.3 kg/m3 | 785.2 kg/m3
25000 kPa, m1 = 4.856 | 999.8 kg/m3 | 986.1 kg/m3 | 973.3 kg/m3 | 959.4 kg/m3 | 945.1 kg/m3 | 931 kg/m3 | 916.8 kg/m3 | 903.4 kg/m3
25000 kPa, m1 = 7.271 | 1118 kg/m3 | 1107.3 kg/m3 | 1095.5 kg/m3 | 1084.6 kg/m3 | 1072.4 kg/m3 | 1060.4 kg/m3 | 1047.4 kg/m3 | 1036.7 kg/m3
25000 kPa, m1 = 11.18 | 1241.2 kg/m3 | 1231.4 kg/m3 | 1219.2 kg/m3 | 1208 kg/m3 | 1197.3 kg/m3 | 1186.5 kg/m3 | 1175.5 kg/m3 | 1164.3 kg/m3
25000 kPa, m1 = 16.46 | 1336.8 kg/m3 | 1329.2 kg/m3 | 1319.4 kg/m3 | 1310.2 kg/m3 | 1301.4 kg/m3 | 1292.4 kg/m3 | 1281.7 kg/m3 | 1273.4 kg/m3
30000 kPa, m1 = 0.867 | 713.7 kg/m3 | 699.6 kg/m3 | 685.5 kg/m3 | 671.3 kg/m3 | 654.8 kg/m3 | 640.4 kg/m3 | 625.2 kg/m3 | 610.8 kg/m3
30000 kPa, m1 = 1.827 | 791 kg/m3 | 778.6 kg/m3 | 764.7 kg/m3 | 749.9 kg/m3 | 737 kg/m3 | 721.9 kg/m3 | 708.4 kg/m3 | 694.7 kg/m3
30000 kPa, m1 = 3.103 | 884.5 kg/m3 | 871.3 kg/m3 | 859.8 kg/m3 | 845.6 kg/m3 | 831.8 kg/m3 | 818.7 kg/m3 | 802.8 kg/m3 | 790.9 kg/m3
30000 kPa, m1 = 4.856 | 1003.5 kg/m3 | 989.9 kg/m3 | 977.3 kg/m3 | 963.1 kg/m3 | 949.2 kg/m3 | 935.2 kg/m3 | 921.1 kg/m3 | 907.8 kg/m3
30000 kPa, m1 = 7.271 | 1120.4 kg/m3 | 1110.4 kg/m3 | 1098.5 kg/m3 | 1087.3 kg/m3 | 1075.2 kg/m3 | 1063.5 kg/m3 | 1050.5 kg/m3 | 1039.9 kg/m3
30000 kPa, m1 = 11.18 | 1243.5 kg/m3 | 1233.7 kg/m3 | 1221.4 kg/m3 | 1210.2 kg/m3 | 1199.8 kg/m3 | 1188.9 kg/m3 | 1177.9 kg/m3 | 1166.8 kg/m3
30000 kPa, m1 = 16.46 | – | 1338.7 kg/m3 and 1331.4 kg/m3 | 1321.6 kg/m3 | 1312.4 kg/m3 | 1303.9 kg/m3 | 1294.5 kg/m3 | 1283.9 kg/m3 | 1275.8 kg/m3

From the NIST ThermoML archive (doi:10.1021/je9006713)
